The record followed here is PMC5218480 (PLoS ONE, 2017).

For the test, the system named is MV-4-11 cells. As to the kind of experiment: Gene expression microarray analysis (Affymetrix PrimeView) and GSEA. The class given is cell-based, human. More on the design: RFU PODN (11730768_x_at) / Fold change /veh PODN (11730768_x_at) / RFU LINC00158 (11744669_a_at) / Fold change /veh LINC00158 (11744669_a_at) / RFU DUSP10 (11751237_a_at) / Fold change /veh DUSP10 (11751237_a_at) / RFU ID3 (11757404_x_at) / Fold change /veh ID3 (11757404_x_at) / RFU PLEKHG5 (11737974_s_at) / Fold change /veh PLEKHG5 (11737974_s_at) / RFU LRRC4B (11730491_at) / Fold change /veh LRRC4B (11730491_at) / RFU GIMAP4 (11747438_a_at) / Fold change /veh GIMAP4 (11747438_a_at) / RFU KRT8 (11758183_x_at) / Fold change /veh KRT8 (11758183_x_at) / RFU CNN1 (11734310_a_at) / Fold change /veh CNN1 (11734310_a_at) / RFU VPS37D (11726825_at) / Fold change /veh VPS37D (11726825_at) / RFU C10orf10 (11716522_x_at) / Fold change /veh C10orf10 (11716522_x_at) / RFU KIR2DL2 /// KIR2DL4 /// KIR2DL5A /// KIR2DL5B /// KIR2DS1 /// KIR2DS2 /// KIR2DS3 /// KIR2DS4 /// KIR3DL3 /// KIR3DL3 /// KIR3DS1 (11738374_at) / Fold change /veh KIR2DL2 /// KIR2DL4 /// KIR2DL5A /// KIR2DL5B /// KIR2DS1 /// KIR2DS2 /// KIR2DS3 /// KIR2DS4 /// KIR3DL3 /// KIR3DL3 /// KIR3DS1 (11738374_at) / RFU C1QL1 (11718748_at) / Fold change /veh C1QL1 (11718748_at) / RFU TMPRSS4 (11747572_a_at) / Fold change /veh TMPRSS4 (11747572_a_at) / RFU HAMP (11756126_x_at) / Fold change /veh HAMP (11756126_x_at) / RFU RNFT2 (11725882_a_at) / Fold change /veh RNFT2 (11725882_a_at) / RFU NR4A2 (11747474_a_at) / Fold change /veh NR4A2 (11747474_a_at) / RFU ABCC12 (11746883_a_at) / Fold change /veh ABCC12 (11746883_a_at) / RFU TMEM136 (11760407_x_at) / Fold change /veh TMEM136 (11760407_x_at) / RFU CLDN22 /// WWC2 (11732394_at) / Fold change /veh CLDN22 /// WWC2 (11732394_at) / RFU HLA-DPB1 (11760878_x_at) / Fold change /veh HLA-DPB1 (11760878_x_at) / RFU SPINT1 (11716480_a_at) / Fold change /veh SPINT1 (11716480_a_at) / RFU GAP43 (11754022_s_at) / Fold change /veh GAP43 (11754022_s_at) / RFU A4GNT (11735810_at) / Fold change /veh A4GNT (11735810_at) / RFU PRB3 (11715151_x_at) / Fold change /veh PRB3 (11715151_x_at) / RFU TUBB4B (11761932_at) / Fold change /veh TUBB4B (11761932_at) / RFU CAPN14 (11732068_a_at) / Fold change /veh CAPN14 (11732068_a_at) / RFU TMCC2 (11721928_a_at) / Fold change /veh TMCC2 (11721928_a_at) / RFU IRGQ (11745062_a_at) / Fold change /veh IRGQ (11745062_a_at) / RFU FAM174B (11720279_a_at) / Fold change /veh FAM174B (11720279_a_at) / RFU TMPRSS4 (11748680_a_at) / Fold change /veh TMPRSS4 (11748680_a_at) / RFU FAM212B (11763350_a_at) / Fold change /veh FAM212B (11763350_a_at) / RFU PLEKHG5 (11743358_a_at) / Fold change /veh PLEKHG5 (11743358_a_at) / RFU ZSCAN30 (11745921_a_at) / Fold change /veh ZSCAN30 (11745921_a_at) / RFU CMKLR1 (11741424_a_at) / Fold change /veh CMKLR1 (11741424_a_at) / RFU LOC101060620 /// MAPK8IP1 (11723275_at) / Fold change /veh LOC101060620 /// MAPK8IP1 (11723275_at) / RFU SPTSSB (11747773_x_at) / Fold change /veh SPTSSB (11747773_x_at) / RFU PRSS12 (11739890_at) / Fold change /veh PRSS12 (11739890_at) / RFU BIN1 (11741810_x_at) / Fold change /veh BIN1 (11741810_x_at) / RFU WNT11 (11732464_a_at) / Fold change /veh WNT11 (11732464_a_at) / RFU C10orf10 (11716521_a_at) / Fold change /veh C10orf10 (11716521_a_at) / RFU C5orf56 (11738089_at) / Fold change /veh C5orf56 (11738089_at) / RFU CYB561 (11721691_x_at) / Fold change /veh CYB561 (11721691_x_at) / RFU ANKRD19P (11752326_a_at) / Fold change /veh ANKRD19P (11752326_a_at) / RFU OR2T12 /// OR2T33 /// OR2T8 (11738714_s_at) / Fold change /veh OR2T12 /// OR2T33 /// OR2T8 (11738714_s_at) / RFU VCAN (11748164_a_at) / Fold change /veh VCAN (11748164_a_at) / RFU JSRP1 (11732532_at) / Fold change /veh JSRP1 (11732532_at) / RFU KRTAP10-11 (11738290_x_at) / Fold change /veh KRTAP10-11 (11738290_x_at) / RFU MYO3A (11730013_a_at) / Fold change /veh MYO3A (11730013_a_at) / RFU EBF3 (11725865_a_at) / Fold change /veh EBF3 (11725865_a_at) / RFU CAMK2N1 (11719241_x_at) / Fold change /veh CAMK2N1 (11719241_x_at) / RFU C5orf56 (11738088_a_at) / Fold change /veh C5orf56 (11738088_a_at) / RFU OLFML3 (11715873_a_at) / Fold change /veh OLFML3 (11715873_a_at) / RFU LOC100653217 /// NTM (11731650_a_at) / Fold change /veh LOC100653217 /// NTM (11731650_a_at) / RFU MAPK11 (11762145_a_at) / Fold change /veh MAPK11 (11762145_a_at) / RFU FIZ1 (11724087_x_at) / Fold change /veh FIZ1 (11724087_x_at) / RFU OASL (11726364_x_at) / Fold change /veh OASL (11726364_x_at) / RFU SOX15 (11748057_x_at) / Fold change /veh SOX15 (11748057_x_at) / RFU CD79A (11719716_a_at) / Fold change /veh CD79A (11719716_a_at) / RFU HIST1H1D (11736915_at) / Fold change /veh HIST1H1D (11736915_at) / RFU CASKIN2 (11723855_a_at) / Fold change /veh CASKIN2 (11723855_a_at) / RFU LOC730098 (11760151_x_at) / Fold change /veh LOC730098 (11760151_x_at) / RFU OR4N2 (11742367_at) / Fold change /veh OR4N2 (11742367_at) / RFU PRRT2 (11749266_a_at) / Fold change /veh PRRT2 (11749266_a_at) / RFU SNX32 (11753110_a_at) / Fold change /veh SNX32 (11753110_a_at) / RFU CDHR5 (11726645_a_at) / Fold change /veh CDHR5 (11726645_a_at) / RFU RCAN1 (11760418_a_at) / Fold change /veh RCAN1 (11760418_a_at) / RFU FAM167A (11723789_a_at) / Fold change /veh FAM167A (11723789_a_at) / RFU FAM26E (11764081_at) / Fold change /veh FAM26E (11764081_at) / RFU ISYNA1 (11749810_s_at) / Fold change /veh ISYNA1 (11749810_s_at) / RFU ACY1 (11761880_at) / Fold change /veh ACY1 (11761880_at) / RFU 11764098_at / Fold change /veh 11764098_at / RFU SAMD14 (11745864_x_at) / Fold change /veh SAMD14 (11745864_x_at) / RFU NPB (11741838_a_at) / Fold change /veh NPB (11741838_a_at) / RFU TMPRSS6 (11731388_a_at) / Fold change /veh TMPRSS6 (11731388_a_at) / RFU KRTAP10-2 (11738614_at) / Fold change /veh KRTAP10-2 (11738614_at) / RFU ARHGAP8 /// PRR5-ARHGAP8 (11727945_x_at) / Fold change /veh ARHGAP8 /// PRR5-ARHGAP8 (11727945_x_at) / RFU KRTAP5-7 /// NADSYN1 (11734609_at) / Fold change /veh KRTAP5-7 /// NADSYN1 (11734609_at) / RFU RASL12 (11751679_a_at) / Fold change /veh RASL12 (11751679_a_at) / RFU CDKN2B (11736163_a_at) / Fold change /veh CDKN2B (11736163_a_at) / RFU PRF1 (11729649_at) / Fold change /veh PRF1 (11729649_at) / RFU, ZNF638 /// ZNF638-IT1 / Fold change vs veh, ZNF638 /// ZNF638-IT1 / RFU, PANK3 / Fold change vs veh, PANK3 / RFU, SH3YL1 / Fold change vs veh, SH3YL1 / RFU, ZEB2 / Fold change vs veh, ZEB2 / RFU, NRIP1 / Fold change vs veh, NRIP1 / RFU, PTTG1IP / Fold change vs veh, PTTG1IP / RFU, CAPN2 / Fold change vs veh, CAPN2 / RFU, MED14 / Fold change vs veh, MED14 / RFU, SNORA58 / Fold change vs veh, SNORA58 / RFU, C1orf63 / Fold change vs veh, C1orf63 / RFU, LRRFIP1 / Fold change vs veh, LRRFIP1 / RFU, NDUFAF7 / Fold change vs veh, NDUFAF7 / RFU, SLC12A2 / Fold change vs veh, SLC12A2 / RFU, IBTK / Fold change vs veh, IBTK / RFU, ESF1 / Fold change vs veh, ESF1 / Fold change vs veh, TMEM50B / RFU, TAOK1 / Fold change vs veh, TAOK1 / RFU, ACBD3 / Fold change vs veh, ACBD3 / RFU, TMA16 / Fold change vs veh, TMA16 / RFU, RWDD3 / Fold change vs veh, RWDD3 / RFU, BCAT1 / Fold change vs veh, BCAT1 / RFU, EDEM3 / Fold change vs veh, EDEM3 / RFU, TMEM33 / Fold change vs veh, TMEM33 / RFU, WDR75 / Fold change vs veh, WDR75 / RFU, AHCTF1 / Fold change vs veh, AHCTF1 / RFU, TFRC / Fold change vs veh, TFRC / RFU, ZDHHC17 / Fold change vs veh, ZDHHC17 / RFU, NOM1 / Fold change vs veh, NOM1 / RFU, ARL8B / Fold change vs veh, ARL8B / RFU, ZBTB11 / Fold change vs veh, ZBTB11 / RFU, TAMM41 / Fold change vs veh, TAMM41 / RFU, KIAA1704 /// LOC100996395 / Fold change vs veh, KIAA1704 /// LOC100996395 / RFU, ING1 / Fold change vs veh, ING1 / RFU, TRMT61B / Fold change vs veh, TRMT61B / RFU, FUBP3 / Fold change vs veh, FUBP3 / RFU, TP53 / Fold change vs veh, TP53 / RFU, TNKS2 / Fold change vs veh, TNKS2 / RFU, ZFP14 / Fold change vs veh, ZFP14 / RFU, ACTR2 / Fold change vs veh, ACTR2 / RFU, PPP3R1 / Fold change vs veh, PPP3R1 / RFU, PIK3R1 / Fold change vs veh, PIK3R1 / RFU, HNRNPA1 / Fold change vs veh, HNRNPA1 / RFU, RNF170 / Fold change vs veh, RNF170 / RFU, ZNF28 / Fold change vs veh, ZNF28 / RFU, RNGTT / Fold change vs veh, RNGTT / RFU, OGT / Fold change vs veh, OGT / RFU, BRD1 / Fold change vs veh, BRD1 / RFU, MARS / Fold change vs veh, MARS / RFU, ZNF655 / Fold change vs veh, ZNF655 / RFU, FAHD1 / Fold change vs veh, FAHD1 / RFU, BDP1 / Fold change vs veh, BDP1 / RFU, LRRCC1 / Fold change vs veh, LRRCC1 / RFU, ARID1A / Fold change vs veh, ARID1A / RFU, ZNF146 / Fold change vs veh, ZNF146 / RFU, ZNF330 / Fold change vs veh, ZNF330 / RFU, GPN3 / Fold change vs veh, GPN3 / RFU, C9orf123 / Fold change vs veh, C9orf123 / RFU, N4BP2L2 / Fold change vs veh, N4BP2L2 / RFU, ARFIP1 / Fold change vs veh, ARFIP1 / RFU, FAM179B / Fold change vs veh, FAM179B / RFU, BCL10 / Fold change vs veh, BCL10 / RFU, UHRF1BP1L / Fold change vs veh, UHRF1BP1L / RFU, BET1 / Fold change vs veh, BET1 / RFU, CNOT2 / Fold change vs veh, CNOT2 / RFU, ZNF268 / Fold change vs veh, ZNF268 / Fold change vs veh, ZNF507 / RFU, DGCR2 / Fold change vs veh, DGCR2 / RFU, WDSUB1 / Fold change vs veh, WDSUB1 / Fold change vs veh, HSP90B1 /// MIR3652 / RFU, ADSS / Fold change vs veh, ADSS / RFU, GK / Fold change vs veh, GK / RFU, ZNF148 / Fold change vs veh, ZNF148 / RFU, TAF9 / Fold change vs veh, TAF9 / RFU, SLC1A5 / Fold change vs veh, SLC1A5 / RFU, SLMO2 / Fold change vs veh, SLMO2 / RFU, ABCC4 / Fold change vs veh, ABCC4 / RFU, LOC101060439 /// RAP1B / Fold change vs veh, LOC101060439 /// RAP1B / RFU, RFX7 / Fold change vs veh, RFX7 / RFU, GTPBP10 / Fold change vs veh, GTPBP10 / RFU, CNEP1R1 / Fold change vs veh, CNEP1R1 / RFU, BIVM-ERCC5 /// ERCC5 / Fold change vs veh, BIVM-ERCC5 /// ERCC5 / RFU, ILF3 / Fold change vs veh, ILF3 / RFU 11762660_at / Fold change /veh 11762660_at / RFU VCAN (11757783_s_at) / Fold change /veh VCAN (11757783_s_at) / RFU DDX43 (11728927_at) / Fold change /veh DDX43 (11728927_at) / RFU KRT8 (11758188_x_at) / Fold change /veh KRT8 (11758188_x_at) / RFU NKD1 (11759106_at) / Fold change /veh NKD1 (11759106_at) / RFU SRD5A1 (11742802_a_at) / Fold change /veh SRD5A1 (11742802_a_at) / RFU TPSAB1 /// TPSB2 (11721975_s_at) / Fold change /veh TPSAB1 /// TPSB2 (11721975_s_at) / RFU GSTM3 (11746129_a_at) / Fold change /veh GSTM3 (11746129_a_at) / RFU IL23R (11737362_x_at) / Fold change /veh IL23R (11737362_x_at) / RFU TMEM51 (11727254_a_at) / Fold change /veh TMEM51 (11727254_a_at) / RFU PIWIL2 (11732686_x_at) / Fold change /veh PIWIL2 (11732686_x_at) / RFU ORM1 (11744905_x_at) / Fold change /veh ORM1 (11744905_x_at) / RFU CCDC152 (11743942_at) / Fold change /veh CCDC152 (11743942_at) / RFU ECM1 (11717891_a_at) / Fold change /veh ECM1 (11717891_a_at) / RFU IL23R (11748794_a_at) / Fold change /veh IL23R (11748794_a_at) / RFU TNFAIP8L3 (11732012_x_at) / Fold change /veh TNFAIP8L3 (11732012_x_at) / RFU MBOAT4 (11741988_at) / Fold change /veh MBOAT4 (11741988_at) / RFU 11764193_at / Fold change /veh 11764193_at / RFU TMEM53 (11763286_at) / Fold change /veh TMEM53 (11763286_at) / RFU MAGEB2 (11727129_at) / Fold change /veh MAGEB2 (11727129_at) / RFU TMEM200A (11744735_a_at) / Fold change /veh TMEM200A (11744735_a_at) / RFU CCDC152 (11751479_a_at) / Fold change /veh CCDC152 (11751479_a_at) / RFU FAM211A (11726209_a_at) / Fold change /veh FAM211A (11726209_a_at) / RFU RGS16 (11746705_a_at) / Fold change /veh RGS16 (11746705_a_at) / RFU VCAN (11755009_s_at) / Fold change /veh VCAN (11755009_s_at) / RFU RHOB (11743442_s_at) / Fold change /veh RHOB (11743442_s_at) / RFU RGS16 (11720943_a_at) / Fold change /veh RGS16 (11720943_a_at) / RFU RGS16 (11720944_at) / Fold change /veh RGS16 (11720944_at) / RFU, VPS4B / Fold change vs veh, VPS4B / RFU, CREB1 / Fold change vs veh, CREB1 / RFU, DNAJC13 / Fold change vs veh, DNAJC13 / RFU, GNAQ / Fold change vs veh, GNAQ / RFU, CDK5R1 / Fold change vs veh, CDK5R1 / RFU, ZRANB3 / Fold change vs veh, ZRANB3 / RFU, CUL4A / Fold change vs veh, CUL4A / RFU, CCNY / Fold change vs veh, CCNY / RFU, UFL1 / Fold change vs veh, UFL1 / RFU, COG3 / Fold change vs veh, COG3 / RFU, DIAPH2 / Fold change vs veh, DIAPH2 / RFU, SKA2 / Fold change vs veh, SKA2 / RFU, AFF3 / Fold change vs veh, AFF3 / RFU, LMF1 / Fold change vs veh, LMF1 / RFU, IPO11 / Fold change vs veh, IPO11 / RFU, DFFB / Fold change vs veh, DFFB / RFU, FOXP1 / Fold change vs veh, FOXP1 / RFU, CARD8 / Fold change vs veh, CARD8 / RFU, STRN3 / Fold change vs veh, STRN3 / RFU, ADK / Fold change vs veh, ADK / RFU, RASSF2 / Fold change vs veh, RASSF2 / RFU, WIPF1 / Fold change vs veh, WIPF1 / RFU, LARP1B / Fold change vs veh, LARP1B / RFU, RASA1 / Fold change vs veh, RASA1 / RFU, RB1 / Fold change vs veh, RB1 / RFU, PPFIA1 / Fold change vs veh, PPFIA1 / RFU, MAT2A / Fold change vs veh, MAT2A / RFU, CCT5 / Fold change vs veh, CCT5 / RFU, WDR92 / Fold change vs veh, WDR92 / RFU, CUX1 / Fold change vs veh, CUX1 / RFU, TTC7A / Fold change vs veh, TTC7A / RFU, TMEM135 / Fold change vs veh, TMEM135 / RFU, DEPTOR / Fold change vs veh, DEPTOR / RFU, CPM / Fold change vs veh, CPM / RFU, DNAJB6 / Fold change vs veh, DNAJB6 / RFU, CACNA2D3 / Fold change vs veh, CACNA2D3 / RFU, DTX4 / Fold change vs veh, DTX4 / RFU, TFCP2 / Fold change vs veh, TFCP2 / RFU, GMCL1 /// GMCL1P1 / Fold change vs veh, GMCL1 /// GMCL1P1 / RFU, AEBP2 / Fold change vs veh, AEBP2 / RFU, SNHG1 /// SNORD22 /// SNORD25 /// SNORD26 /// SNORD27 /// SNORD28 /// SNORD29 /// SNORD31 / Fold change vs veh, SNHG1 /// SNORD22 /// SNORD25 /// SNORD26 /// SNORD27 /// SNORD28 /// SNORD29 /// SNORD31 / Fold change (Aza/veh), C12orf56 (ProbeSet 11735607_a_at) / Fold change (ACY-1035/veh), C12orf56 (ProbeSet 11735607_a_at) / Fold change (Aza/veh), FGFR1OP (ProbeSet 11751329_s_at) / Fold change (ACY-1035/veh), FGFR1OP (ProbeSet 11751329_s_at) / Fold change (Aza/veh), VPS36 (ProbeSet 11739960_a_at) / Fold change (ACY-1035/veh), VPS36 (ProbeSet 11739960_a_at) / RFU SYPL1 (11715823_x_at) / Fold change /veh SYPL1 (11715823_x_at) / RFU IGFBP7 (11715501_s_at) / Fold change /veh IGFBP7 (11715501_s_at) / RFU REEP3 (11722064_at) / Fold change /veh REEP3 (11722064_at) / RFU IGLL1 (11728026_x_at) / Fold change /veh IGLL1 (11728026_x_at): dose or concentration left out as unconfirmed. The conditions noted are these: MV-4-11 cells, 48 hours.

In the case of `Nc1ccc(-c2cccs2)cc1NC(=O)c1ccc2c(c1)cc(C1CC1)n2CCN1CCOCC1` [ACY-1035], the “RFU FAM26E (11764081_at)” value was determined as 5.59 RFU.
